Here are results for twelve molecules from the SangsterLogP compilation.

Each structure is given as a SMILES string.

The series is described as follows: method code SF-AS, from PMID: 8047542.
In the case of `CC(C)Cc1ccc(C(C)C(=O)OC(C)(C)C)cc1` (configuration not stated), the logP (as a rule, a log measure of how a compound divides between an organic and an aqueous phase) stood at 2.37.
Next, `CCOC(=O)C(C)c1ccc(CC(C)C)cc1` (configuration not stated): 3.02; `CCCCCCCOC(=O)C(C)c1ccc(CC(C)C)cc1` (configuration not stated): 3.75.
Next, `CCCCCOC(=O)C(C)c1ccc(CC(C)C)cc1` (configuration not stated): 3.3.
Next, `CCCOC(=O)C(C)c1ccc(CC(C)C)cc1` (configuration not stated): 2.88.
As to `CCC(C)OC(=O)C(C)c1ccc(CC(C)C)cc1` (configuration not stated), the log partition coefficient (logP) came to 3.06.
Next, `CCCCCCOC(=O)C(C)c1ccc(CC(C)C)cc1` (configuration not stated): 3.55; `COC(=O)C(C)c1ccc(CC(C)C)cc1` (configuration not stated): 2.97.
`CC(C)Cc1ccc(C(C)C(=O)OC(C)C)cc1` (configuration not stated) showed a log partition coefficient (logP) of 2.3.
Next, `CC(C)COC(=O)C(C)c1ccc(CC(C)C)cc1` (configuration not stated): 2.68; `CCCCOC(=O)C(C)c1ccc(CC(C)C)cc1` (configuration not stated): 3.13.
Next, `CCCCCCCCCCCCCCCCOC(=O)C(C)c1ccc(CC(C)C)cc1` (configuration not stated): 3.71.
